Measurements from US20250179047A1, “5-[7-(3,4-DIHYDRO-1H-ISOQUINOLINE-2-CARBONYL)-1,2,3,4 TETRAHYDROISOQUINOLIN-6-YL]-1H-PYRROLE-3-CARBOXAMIDE DERIVATIVES, PHARMACEUTICAL COMPOSITIONS CONTAINING THEM AND THEIR USES AS PRO-APOPTOTIC AGENTS” (LES LABORATOIRES SERVIER, priority 2022, published 2025).
pKi: −log10 of the molar value.

How the values were obtained:
KMS-12-PE Bcl-2 WT = assay: In vitro cytotoxicity CellTiter-Glo 48 h, KMS-12-PE Bcl-2 WT; assay type: cell-based; conditions: C50 = concentration needed to reach 50% of the cellular viability
Outline: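 Bcl-2 WT- and G101V-expressing KMS-12-PE cells; 48 h treatment at 37 °C, 5% CO2; CellTiter-Glo ATP luminescence; C50 from 11-point curves.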

BCL2 D103Y = BCL2 D103Y (Homo sapiens, UniProt P10415, D103Y); assay: TR-FRET competitive binding assay, BCL2 D103Y; conditions: Ki determined from IC50, read-out: TR_FRET EKI_Bcl2 D103Y
Outline: (§1)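 Terbium-labelled N-terminal Halo-fusion BCL2 or BCLXL (E. coli), 0.5 nM, competed against fluorescein-labelled PUMA peptide (2 or 20 nM) for 2 h at 23° C in 50 mM Hepes pH 7.5, 150 mM NaCl, 5% DMSO. TR-FRET 520/495 nm ratio gave IC50 by four-parameter fit; Ki derived from IC50.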

BCL2 WT = BCL2 WT (Homo sapiens (Human), UniProt P10415); assay: TR-FRET competitive binding assay, BCL2 WT; conditions: Ki determined from IC50, read-out: TR_FRET EKI_Bcl2 WT
Outline: as §1

BCLXL WT = BCLXL WT (Homo sapiens (Human), UniProt Q07817); assay: TR-FRET competitive binding assay, BCLXL WT; conditions: for pKi: BCLXL WT, Ki determined from IC50, read-out: TR_FRET EKI BclxL; for TR_FRET EKI BCLxL/WT selectivty ratio: ratio Ki BCLxL / Ki BCL2 WT
Outline: as §1

BCL2 G101V [1] = molecular target: BCL2 G101V (Homo sapiens, UniProt P10415, G101V); assay: TR-FRET competitive binding assay, BCL2 G101V; conditions: BCL2 G101V; Ki determined from IC50; read-out: TR_FRET EKI_Bcl2 G101V
Outline: as §1

BCL2 G101V [2] = assay: TR-FRET competitive binding assay, BCL2 G101V; design: species or system human; conditions: ratio Ki BCL2 G101V / Ki BCL2 WT
Outline: as §1

KMS-12-PE Bcl-2 G101V = assay: In vitro cytotoxicity CellTiter-Glo 48 h, KMS-12-PE Bcl-2 G101V; assay type: cell-based; conditions: for Ratio (G101V/WT): C50 KMS-12-PE Bcl-2 G101V over C50 KMS-12-PE Bcl-2 WT; for IC50: 48 h, CellTiter-Glo, C50 = concentration needed to reach 50% of the cellular viability
Description: KMS-12-PE (ACC 606) were purchased from the Leibniz-Institute DSMZ (Braunschweig, Germany) and were grown at 37° C. in a humidified atmosphere with […] in media recommended by the suppliers. Lentiviral particles containing Bcl-2 wild type (also named “Bcl2 WT”) and Bcl-2 mutated on G101V (also named “Bcl2 G101V”) were cloned into pcLV-CMV-DEST-IRES-TagRFP. Lentiviral particles (1×106) were mixed with Polybrene at 8 µg/ml and transduced by spinoculation for 1 h at 32° C. and incubated overnight. After 8 days, TagRFP positive-cells were sorted by FACS. BCL2 expression was monitored by immunoblotting using anti-Flag and anti-BCL2 antibodies.
Cellular viability was monitored with the cell viability assay (CellTiter-Glo®) on KMS-12-PE WT and G101V cell lines. The CellTiter-Glo® (CTG) Luminescent Cell Viability Assay (from Promega) is a homogeneous method to determine the number of viable cells in culture based on quantitation of the ATP present, which signals the presence of metabolically active cells.
Dose response of compounds are performed with 10 mM stock solutions (DMSO), 11-points curve, in a 384-well compound plate. The assay plate is prepared by stamping 40 nL from compound dilution plate of all different concentrations (e.g. 10 mM to have final […] assay test) into a cell culture microplate, using Echo acoustic liquid handling (Labcyte, Beckman). 40 μl of cell solution is added and cells are incubated with compounds for 48 h at 37° C., 5% CO2. CTG was added to the cells (according to the manufacturer instructions) and luminescence intensity was recorded using the Pherastar plate reader (BMG).
This assay provides in vitro cellular potency of the tested Bcl-2 inhibitors, measuring the C50, defined as the concentration needed to reach 50% of the cellular viability.

Sequence of BCLXL WT (Q07817 other isoform, or with tags, fused parts or gaps): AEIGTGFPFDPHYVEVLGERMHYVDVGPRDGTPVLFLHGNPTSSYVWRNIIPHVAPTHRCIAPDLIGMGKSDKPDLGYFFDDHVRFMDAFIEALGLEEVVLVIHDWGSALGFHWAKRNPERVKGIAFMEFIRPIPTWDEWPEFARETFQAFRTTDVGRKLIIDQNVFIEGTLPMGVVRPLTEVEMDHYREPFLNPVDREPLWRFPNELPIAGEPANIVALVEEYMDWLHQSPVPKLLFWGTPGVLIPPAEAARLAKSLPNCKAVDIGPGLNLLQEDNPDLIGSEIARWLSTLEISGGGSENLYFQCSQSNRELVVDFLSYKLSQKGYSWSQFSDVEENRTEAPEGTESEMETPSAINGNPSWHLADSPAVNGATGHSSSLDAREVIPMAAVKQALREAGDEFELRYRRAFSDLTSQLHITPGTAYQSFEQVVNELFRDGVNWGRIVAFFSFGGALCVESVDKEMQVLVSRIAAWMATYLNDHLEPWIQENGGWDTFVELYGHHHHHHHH

SMILES	pKi (BCL2 D103Y)	pKi (BCL2 WT)	pKi (BCLXL WT)	TR_FRET EKI BCLxL/WT selectivty ratio (BCLXL WT)	pKi (BCL2 G101V [1])	TR_FRET EKI G101V/WT selectivty ratio (BCL2 G101V [2])	IC50 (KMS-12-PE Bcl-2 WT; Homo sapiens, KMS-12-PE)	Ratio (G101V/WT) (KMS-12-PE Bcl-2 G101V)	IC50 (KMS-12-PE Bcl-2 G101V; Homo sapiens, KMS-12-PE)	IC50 (KMS-12-PE Bcl-2 WT)	IC50 (KMS-12-PE Bcl-2 G101V)
Cc1c(N(C(=O)c2cc(-c3cc4c(cc3C(=O)N3Cc5ccccc5C[C@H]3C)CN(C(=O)c3n[nH]c5ccccc35)CC4)n(C)c2C)c2ccc(O)cc2)cc(C#N)n1C [Example 15, N-(5-cyano-1,2-dimethyl-1H-pyrrol-3-yl)-N-(4-hydroxyphenyl)-5-[2-(1H-indazole-3-carbonyl)-7-[(3R)-3-methyl-1,2,3,4-tetrahydroisoquinoline-2-carbonyl]-1,2,3,4-tetrahydroisoquinolin-6-yl]-1,2-dimethyl-1H-pyrrole-3-carboxamide]	8.52	9.17	8.08	12.5	8.21	9.1	0.0166 µM	4.3	0.0714 µM		
Cc1c(N(C(=O)c2cc(-c3cc4c(cc3C(=O)N3Cc5ccccc5C[C@H]3CN3CCCCC3)CN(C(=O)Cc3ccc(OCC(C)N5CCOCC5)cc3F)CC4)n(C)c2C)c2ccc(O)cc2)cc(C#N)n1C (single isomer, unassigned) [Example 141, N-(5-cyano-1,2-dimethyl-1H-pyrrol-3-yl)-5-[2-(2-{2-fluoro-4-[(2R or S)-2-(morpholin-4-yl)propoxy]phenyl}acetyl)-7-[(3S)-3-[(piperidin-1-yl)methyl]-1,2,3,4-tetrahydroisoquinoline-2-carbonyl]-1,2,3,4-tetrahydroisoquinolin-6-yl]-N-(4-hydroxyphenyl)-1,2-dimethyl-1H-pyrrole-3-carboxamide]	9.70	10.22	8.96	17.7	9.52	4.7		2.2379		0.0085 µM	0.019 µM
Cc1c(N(C(=O)c2cc(-c3cc4c(cc3C(=O)N3Cc5ccccc5C[C@H]3C)CN(C(=O)Cc3ccccc3C#N)CC4)n(C)c2C)c2ccc(O)cc2)cc(C#N)n1C [Example 12, N-(5-cyano-1,2-dimethyl-1H-pyrrol-3-yl)-5-{2-[2-(2-cyanophenyl)acetyl]-7-[(3R)-3-methyl-1,2,3,4-tetrahydroisoquinoline-2-carbonyl]-1,2,3,4-tetrahydroisoquinolin-6-yl}-N-(4-hydroxyphenyl)-1,2-dimethyl-1H-pyrrole-3-carboxamide]	9.40	9.66			8.77	7.7	0.0074 µM	9.14	0.0676 µM		

The next lines start with results.

pKi (BCL2 D103Y)	pKi (BCL2 WT)	pKi (BCLXL WT)	TR_FRET EKI BCLxL/WT selectivty ratio (BCLXL WT)	pKi (BCL2 G101V [1])	TR_FRET EKI G101V/WT selectivty ratio (BCL2 G101V [2])	SMILES	IC50 (KMS-12-PE Bcl-2 WT; Homo sapiens, KMS-12-PE)	Ratio (G101V/WT) (KMS-12-PE Bcl-2 G101V)	IC50 (KMS-12-PE Bcl-2 G101V; Homo sapiens, KMS-12-PE)	IC50 (KMS-12-PE Bcl-2 WT)	IC50 (KMS-12-PE Bcl-2 G101V)
9.40	9.80	8.52	19.1	9.15	4.6	Cc1c(N(C(=O)c2cc(-c3cc4c(cc3C(=O)N3Cc5ccccc5C[C@H]3C)CN(C(=O)Cc3ccc(OCCC5CCOCC5)nc3)CC4)n(C)c2C)c2ccc(O)cc2)cc(C#N)n1C [Example 59, N-(5-cyano-1,2-dimethyl-1H-pyrrol-3-yl)-N-(4-hydroxyphenyl)-1,2-dimethyl-5-{7-[(3R)-3-methyl-1,2,3,4-tetrahydroisoquinoline-2-carbonyl]-2-(2-{6-[2-(oxan-4-yl)ethoxy]pyridin-3-yl}acetyl)-1,2,3,4-tetrahydroisoquinolin-6-yl}-1H-pyrrole-3-carboxamide]	0.0064 µM	5.15	0.0331 µM		
9.80	10.22	8.85	23.7	9.52	4.6	CCN(CC)C[C@@H]1Cc2ccccc2CN1C(=O)c1cc2c(cc1-c1cc(C(=O)N(c3ccc(O)cc3)c3cc(C#N)n(C)c3C)c(C)n1C)CCN(C(=O)Cc1ccc(OCCN3CCOCC3)cc1F)C2 [Example 137, N-(5-cyano-1,2-dimethyl-1H-pyrrol-3-yl)-5-{7-[(3S)-3-[(diethylamino)methyl]-1,2,3,4-tetrahydroisoquinoline-2-carbonyl]-2-(2-{2-fluoro-4-[2-(morpholin-4-yl)ethoxy]phenyl}acetyl)-1,2,3,4-tetrahydroisoquinolin-6-yl}-N-(4-hydroxyphenyl)-1,2-dimethyl-1H-pyrrole-3-carboxamide]	0.0148 µM	3.2905	0.0487 µM		
9.09	9.70	8.64	11.5	9.00	5.0	Cc1c(C(=O)N(c2ccc(O)cc2)c2cc(C#N)n(CCN(C)C3CC3)c2C)cc(-c2cc3c(cc2C(=O)N2Cc4ccccc4C[C@H]2C)CN(C(=O)Cc2ccccc2)CC3)n1C [Example 22, N-[5-cyano-1-[2-[cyclopropyl(methyl)amino]ethyl]-2-methyl-pyrrol-3-yl]-N-(4-hydroxyphenyl)-1,2-dimethyl-5-[7-[(3R)-3-methyl-3,4-dihydro-1H-isoquinoline-2-carbonyl]-2-(2-phenylacetyl)-3,4-dihydro-1H-isoquinolin-6-yl]pyrrole-3-carboxamide]	0.0102 µM	8.47	0.0864 µM		
9.10	9.96	8.55	25.5	9.30	4.5	Cc1c(C(=O)N(c2ccc(O)cc2)c2cc(C#N)n(C(C)C)c2C)cc(-c2cc3c(cc2C(=O)N2Cc4ccccc4C[C@H]2C)CN(C(=O)Cc2ccc(OCCN4CCOCC4)cc2)CC3)n1C [Example 64, N-(5-cyano-1-isopropyl-2-methyl-pyrrol-3-yl)-N-(4-hydroxyphenyl)-1,2-dimethyl-5-[7-[(3R)-3-methyl-3,4-dihydro-1H-isoquinoline-2-carbonyl]-2-[2-[4-(2-morpholinoethoxy)phenyl]acetyl]-3,4-dihydro-1H-isoquinolin-6-yl]pyrrole-3-carboxamide]	0.0156 µM	4.78	0.0745 µM		
9.68	10.22	8.27	93.1	9.40	6.9	Cc1c(N(C(=O)c2cc(-c3cc4c(cc3C(=O)N3Cc5ccccc5C[C@H]3CN3CCCCC3)CN(C(=O)Cc3ccc(OCC(C)N5CCOCC5)cc3)CC4)n(C)c2C)c2ccc(O)cc2)cc(C#N)n1C (single isomer, unassigned) [Example 128, N-(5-cyano-1,2-dimethyl-1H-pyrrol-3-yl)-N-(4-hydroxyphenyl)-1,2-dimethyl-5-[2-(2-{4-[(2R or S)-2-(morpholin-4-yl)propoxy]phenyl}acetyl)-7-[(3S)-3-[(piperidin-1-yl)methyl]-1,2,3,4-tetrahydroisoquinoline-2-carbonyl]-1,2,3,4-tetrahydroisoquinolin-6-yl]-1H-pyrrole-3-carboxamide]		5.95		0.0103 µM	0.0613 µM
